Laboratory results: the NIST ThermoML archive (doi:10.1021/je9003959)

Assay: xn = mol fraction of the nth substance listed
Details: 101 kPa, Liquid; for viscosity: Capillary tube (Ostwald / Ubbelohde) method; for speed of sound: Cylindrical cavity resonance method

CCN1CCCC1=O [1-ethyl-2-pyrrolidinone] + O
Details | mass density [kg/m3] | speed of sound [m/s] | viscosity [mPa·s]
293 K, x1 = 0.022 | 1003.49 | 1574.8 | 1.593
293 K, x1 = 0.05 | 1010.45 | 1651.9 | 2.368
293 K, x1 = 0.1 | 1020.31 | 1711.9 | 4.149
293 K, x1 = 0.2 | 1026.26 | 1712.2 | 6.159
293 K, x1 = 0.3 | 1023.9 | 1677.6 | 6.189
293 K, x1 = 0.4 | 1022.18 | 1640.4 | 5.349
293 K, x1 = 0.5 | 1019.16 | 1610.7 | 4.506
293 K, x1 = 0.6 | 1014.04 | 1583.1 | 3.639
293 K, x1 = 0.7 | 1010.43 | 1562.1 | 3.13
293 K, x1 = 0.8 | 1006.66 | 1541.7 | 2.671
293 K, x1 = 0.9 | 1003.19 | 1526.1 | 2.458
293 K, x1 = 1 | 1000.55 | 1511.6 | 2.133
298 K, x1 = 0.022 | 1001.76 | 1580 | 1.433
298 K, x1 = 0.05 | 1007.34 | 1648.9 | 2.047
298 K, x1 = 0.1 | 1016.76 | 1699.4 | 3.418
298 K, x1 = 0.2 | 1021.82 | 1694.2 | 4.849
298 K, x1 = 0.3 | 1019.33 | 1658.6 | 5.029
298 K, x1 = 0.4 | 1016.58 | 1621.2 | 4.386
298 K, x1 = 0.5 | 1014.6 | 1591.5 | 3.856
298 K, x1 = 0.6 | 1009.45 | 1564 | 3.244
298 K, x1 = 0.7 | 1005.98 | 1542.9 | 2.836
298 K, x1 = 0.8 | 1002.26 | 1522.6 | 2.43
298 K, x1 = 0.9 | 998.84 | 1507 | 2.21
298 K, x1 = 1 | 996.24 | 1492.5 | 2.022
303 K, x1 = 0.022 | 999.83 | 1583.9 | 1.254
303 K, x1 = 0.05 | 1002.82 | 1645.1 | 1.767
303 K, x1 = 0.1 | 1013.12 | 1686.7 | 2.842
303 K, x1 = 0.2 | 1017.34 | 1675.8 | 4.088
303 K, x1 = 0.3 | 1014.71 | 1639.3 | 4.164
303 K, x1 = 0.4 | 1012.16 | 1601.7 | 3.621
303 K, x1 = 0.5 | 1010 | 1572.1 | 3.28
303 K, x1 = 0.6 | 1004.1 | 1544.6 | 2.86
303 K, x1 = 0.7 | 1001.5 | 1523.6 | 2.527
303 K, x1 = 0.8 | 997.83 | 1503.4 | 2.218
303 K, x1 = 0.9 | 994.48 | 1487.9 | 2.011
303 K, x1 = 1 | 991.93 | 1473.3 | 1.832
313 K, x1 = 0.022 | 995.35 | 1588.3 | 0.9966
313 K, x1 = 0.05 | 997.46 | 1634.8 | 1.327
313 K, x1 = 0.1 | 1005.63 | 1660.4 | 2.051
313 K, x1 = 0.2 | 1008.28 | 1639.1 | 2.879
313 K, x1 = 0.3 | 1005.38 | 1600.7 | 2.966
313 K, x1 = 0.4 | 1001.82 | 1562.8 | 2.6
313 K, x1 = 0.5 | 1000.71 | 1533.3 | 2.509
313 K, x1 = 0.6 | 995 | 1506 | 2.262
313 K, x1 = 0.7 | 992.48 | 1485.3 | 2.04
313 K, x1 = 0.8 | 988.94 | 1465.2 | 1.777
313 K, x1 = 0.9 | 985.71 | 1449.9 | 1.702
313 K, x1 = 1 | 983.26 | 1435.3 | 1.621
323 K, x1 = 0.022 | 989.91 | 1588.3 | 0.8044
323 K, x1 = 0.05 | 991.01 | 1622.3 | 1.073
323 K, x1 = 0.1 | 997.84 | 1633.2 | 1.358
323 K, x1 = 0.2 | 999.06 | 1602.1 | 2.164
323 K, x1 = 0.3 | 995.92 | 1561.9 | 2.234
323 K, x1 = 0.4 | 992.73 | 1523.7 | 2.014
323 K, x1 = 0.5 | 991.3 | 1494.4 | 1.986
323 K, x1 = 0.6 | 985.81 | 1467.5 | 1.856
323 K, x1 = 0.7 | 983.37 | 1447.1 | 1.67
323 K, x1 = 0.8 | 979.96 | 1427.3 | 1.54
323 K, x1 = 0.9 | 976.89 | 1412.2 | 1.435
323 K, x1 = 1 | 974.56 | 1398 | 1.358
